For one data set, the system named is FANCM protein. The data set can be described thus: Western blot of FANCM protein levels. Format: cell-based. Conditions: cells treated with CRISPR RNP sgRNA (FIG. 4B). The protocol: Cells were plated for all conditions at a necessary density for analysis (1×10^7 cells per/reaction for nuclear isolation). Following treatment, cells were washed with PBS and trypsinized with TrypLE until loss of adherence. Cells were collected in a 15 mL falcon tube and spun down into a pellet at 1,000 RPM×5 minutes. The supernatant is aspirated and pellets were then placed into downstream protocol (NE-PER cell fractionation kit protocol as provided by vendor). Samples were run on 3-8% Bis-tris gels (Thermo fisher Cat #EA0375PK2) for 45 minutes @ 200 v. […] Membranes were stained overnight at 4 degrees with appropriate antibodies.
FANCM: Anti-FANCM Antibody, clone CV5.1 (MABC545) 1:1000 dilution
Lamin B: Recombinant Anti-Lamin B1 antibody [EPR8985(B)] (ab133741) 1:2000 dilution
Background: In western blotting, separated proteins are transferred to a membrane and probed.

Data set [1] concerns FANCM mRNA transcript in UWB1.289. The data set can be described thus: qPCR of FANCM mRNA expression after doxycycline induced shRNA. Conditions: three days of doxycycline treatment. Format: cell-based. From the text: All shRNAs were cloned into pLKO-tet-on vector, packaged into lentivirus and titered for each cell line for an MOI <0.7.
In general terms: In qPCR the cycle at which signal appears reflects the starting amount.

As for “FANCM sgRNA #3: sgRNA targeting the FANCM locus, SEQ ID NO: 69, CATGACCACGGCGGCAATAA (synthetic chemically modified sgRNA (Synthego EZ kit), pattern not given here)”, the “FANCM protein expression (Western blot)” value in the data set with FANCM protein is given as “loss of FANCM protein expression”.
The same measure, in the same setting: the result for “FANCM sgRNA #4: sgRNA targeting the FANCM locus, SEQ ID NO: 70, AAAGACCTTTATTGCCGCCG (synthetic chemically modified sgRNA (Synthego EZ kit), pattern not given here)” reads “loss of FANCM protein expression”.
On to “shRNA #1307: doxycycline-inducible shRNA targeting FANCM, SEQ ID NO: 77, GACTTCATGAAACTCTATAAT”, for which the “FANCM mRNA transcripts (qPCR)” value in data set [1] is “loss of FANCM mRNA transcripts”.
“shRNA #1858: doxycycline-inducible shRNA targeting FANCM, SEQ ID NO: 78, AGGACGAGAGGAACGTATTTA”: in data set [1], the “FANCM mRNA transcripts (qPCR)” value was “loss of FANCM mRNA transcripts”.

The values above are taken from patent US20230250145A1, “COMPOSITIONS AND METHODS FOR THE TREATMENT OF CANCER” (MOMA Therapeutics, Inc., priority 2020, published 2023).
